In US11292821B2, “Peptides and combination of peptides for use in immunotherapy against lung cancer, including NSCLC, SCLC and other cancers” (Immatics Biotechnologies GmbH, priority 2017, dated 2022):

Tests used:
[1] = test system: HLA-B*44; assay: MHC binding assay (UV-ligand exchange, β2m ELISA); set-up: species or system human; settings: for Peptide exchange (peptide exchange yield, MHC class I binding score): UV-ligand exchange, β2m ELISA
[2] = test system: CD8+ T cells; assay: In vitro T-cell priming assay with aAPCs (in vitro immunogenicity for MHC class I presented peptides); type: cell-based, human; settings: in vitro immunogenicity
[3] = molecular target: HLA-B*07 (Homo sapiens, UniProt P01889); assay: MHC binding assay (UV-ligand exchange, β2m ELISA)

Peptide exchange (peptide exchange yield, MHC class I binding score) [1]	Substance	other results
“+” (>10% = +)	370 (YEDLSQKY; listed as Homo sapiens) [compound 370]	
“++” (>20% = ++)	371 (GELALKKKI; listed as Homo sapiens) [compound 371]	
“++” (>20% = ++)	372 (TEGIIMKDF; listed as Homo sapiens) [compound 372]	
“+++” (>50 =+++)	373 (MEMQKSPVF; listed as Homo sapiens) [compound 373]	
“+” (>10% = +)	374 (DEVNFLVY; listed as Homo sapiens) [compound 374]	
“+++” (>50 =+++)	478 (SEIEQEIGSL; listed as Homo sapiens) [compound 478]	
“+++” (>50 =+++)	479 (AEIQPQTQV; listed as Homo sapiens) [compound 479]	
“++” (>20% = ++)	480 (GEVSGLTKDF; listed as Homo sapiens) [compound 480]	
“+++” (>50 =+++)	481 (RELQHEHSL; listed as Homo sapiens) [compound 481]	
“+++” (>50 =+++)	482 (TEREWADEW; listed as Homo sapiens) [compound 482]	
“+++” (>50 =+++)	483 (EENDQSTHKW; listed as Homo sapiens) [compound 483]	
“++++” (>75% = ++++)	484 (AEVGFVRFF; listed as Homo sapiens) [compound 484]	
“+++” (>50 =+++)	485 (SEIEDSTKQVF; listed as Homo sapiens) [compound 485]	
“+++” (>50 =+++)	486 (SEDDPILQI; listed as Homo sapiens) [compound 486]	
“+++” (>50 =+++)	487 (AEDQLHHSF; listed as Homo sapiens) [compound 487]	
“++” (>20% = ++)	488 (TEFPIIKMY; listed as Homo sapiens) [compound 488]	
“++++” (>75% = ++++)	489 (SEIGKAVGF; listed as Homo sapiens) [compound 489]	

The remaining lines, values behind:

Substance	Peptide exchange (peptide exchange yield, MHC class I binding score) [1]	other results
319 (AEMLERVIKNY; listed as Homo sapiens) [compound 319]	“++++” (>75% = ++++)	
320 (MEVDPIGHVYIF; listed as Homo sapiens) [compound 320]	“++++” (>75% = ++++)	Wells positive [%] ([2]; HLA B*44): “+” (<20% = +)
321 (AEMLESVIKNY; listed as Homo sapiens) [compound 321]	“+++” (>50 =+++)	
322 (KEVDPAGHSY; listed as Homo sapiens) [compound 322]	“++” (>20% = ++)	Wells positive [%] ([2]; HLA B*44): “++” (20%-49% = ++)
323 (SEFMQVIF; listed as Homo sapiens) [compound 323]	“+++” (>50 =+++)	Wells positive [%] ([2]; HLA B*44): “+” (<20% = +)
324 (TDSIHAWTF; listed as Homo sapiens) [compound 324]	“+++” (>50 =+++)	
325 (QEQDVDLVQKY; listed as Homo sapiens) [compound 325]	“++” (>20% = ++)	Wells positive [%] ([2]; HLA B*44): “+” (<20% = +)
326 (QEMQHFLGL; listed as Homo sapiens) [compound 326]	“+++” (>50 =+++)	Wells positive [%] ([2]; HLA B*44): “+” (<20% = +)
327 (YEIEARNQVF; listed as Homo sapiens) [compound 327]	“+++” (>50 =+++)	
328 (FEYDFLLQRI; listed as Homo sapiens) [compound 328]	“++++” (>75% = ++++)	Wells positive [%] ([2]; HLA B*44): “+” (<20% = +)
329 (NEHPSNNW; listed as Homo sapiens) [compound 329]	“+++” (>50 =+++)	Wells positive [%] ([2]; HLA B*44): “+” (<20% = +)
330 (KEGDLGGKQW; listed as Homo sapiens) [compound 330]	“+++” (>50 =+++)	Wells positive [%] ([2]; HLA B*44): “+” (<20% = +)
331 (EDAQGHIW; listed as Homo sapiens) [compound 331]	“+++” (>50 =+++)	Wells positive [%] ([2]; HLA B*44): “++” (20%-49% = ++)
332 (MEVPVIKI; listed as Homo sapiens) [compound 332]	“++” (>20% = ++)	
335 (KELEATKQY; listed as Homo sapiens) [compound 335]	“++” (>20% = ++)	
336 (ASSSGPMRWW; listed as Homo sapiens) [compound 336]	“++” (>20% = ++)	
341 (EEIEGKGSFTYF; listed as Homo sapiens) [compound 341]	“+++” (>50 =+++)	
343 (TEFTTVLY; listed as Homo sapiens) [compound 343]	“++” (>20% = ++)	
344 (EEATGQFHVY; listed as Homo sapiens) [compound 344]	“+++” (>50 =+++)	
345 (IEFIHPQAF; listed as Homo sapiens) [compound 345]	“++++” (>75% = ++++)	
346 (VEAPGPVHVYW; listed as Homo sapiens) [compound 346]	“++++” (>75% = ++++)	
347 (ALNPYQYQY; listed as Homo sapiens) [compound 347]	“+++” (>50 =+++)	
348 (AEIQGNINHV; listed as Homo sapiens) [compound 348]	“+++” (>50 =+++)	
349 (AEQDMRELTY; listed as Homo sapiens) [compound 349]	“+++” (>50 =+++)	

Substance	Peptide exchange (peptide exchange yield, MHC class I binding score) [1]	other results
350 (GECDVFKEIL; listed as Homo sapiens) [compound 350]	“+++” (>50 =+++)	
351 (EEVNYINTF; listed as Homo sapiens) [compound 351]	“+++” (>50 =+++)	
352 (NEVLTYIKF; listed as Homo sapiens) [compound 352]	“++++” (>75% = ++++)	
353 (GEIIMQNNW; listed as Homo sapiens) [compound 353]	“++++” (>75% = ++++)	
354 (TEDPTILRI; listed as Homo sapiens) [compound 354]	“+++” (>50 =+++)	
355 (SDMVRFHLF; listed as Homo sapiens) [compound 355]	“++” (>20% = ++)	
356 (EEGRVYLF; listed as Homo sapiens) [compound 356]	“+++” (>50 =+++)	
357 (RELENCFQIQ; listed as Homo sapiens) [compound 357]	“+++” (>50 =+++)	
358 (KEADIHFLI; listed as Homo sapiens) [compound 358]	“++++” (>75% = ++++)	
359 (DELFSIALY; listed as Homo sapiens) [compound 359]	“+++” (>50 =+++)	
360 (AEVPTGVII; listed as Homo sapiens) [compound 360]	“++++” (>75% = ++++)	
361 (SENLFFASF; listed as Homo sapiens) [compound 361]	“++++” (>75% = ++++)	
362 (SEKGVIQVY; listed as Homo sapiens) [compound 362]	“+++” (>50 =+++)	
363 (AELDKLTSV; listed as Homo sapiens) [compound 363]	“+++” (>50 =+++)	
364 (AETPIQNVI; listed as Homo sapiens) [compound 364]	“+++” (>50 =+++)	
365 (SEMNVNMKY; listed as Homo sapiens) [compound 365]	“++++” (>75% = ++++)	
366 (AENLFRAF; listed as Homo sapiens) [compound 366]	“++” (>20% = ++)	
367 (GEVHPSEMI; listed as Homo sapiens) [compound 367]	“+++” (>50 =+++)	
368 (GEFPVRVQV; listed as Homo sapiens) [compound 368]	“++” (>20% = ++)	
369 (EEIERFFKL; listed as Homo sapiens) [compound 369]	“+++” (>50 =+++)	
463 (TPKAGPTL; listed as Homo sapiens) [compound 463]		Wells positive [%] ([2]; HLA B*07): “+” (<20% = +); Peptide exchange (peptide exchange yield, MHC class I binding score) [3]: “++++” (>75% = ++++)
473 (LPRALLSSL; listed as Homo sapiens) [compound 473]		Wells positive [%] ([2]; HLA B*07): “++” (20%-49% = ++); Peptide exchange (peptide exchange yield, MHC class I binding score) [3]: “++++” (>75% = ++++)
474 (LPRLLPAL; listed as Homo sapiens) [compound 474]		Wells positive [%] ([2]; HLA B*07): “+++” (50%-69% = +++); Peptide exchange (peptide exchange yield, MHC class I binding score) [3]: “++++” (>75% = ++++)
AEIEADRSY (listed as Homo sapiens) [SEQ ID NO: 531]		binding to HLA allotype [1]: binds to HLA-B*44
